These results are taken from patent US20240400547A1, “2,6-PIPERIDINEDIONE COMPOUND AND APPLICATION THEREOF” (MEDSHINE DISCOVERY INC., priority 2021, published 2024).

One test has as its target T1, IRAK4 (Homo sapiens, UniProt Q9NWZ3).
T1 construct: expressed in transfected cells; host or cells: K562 IRAK4-HiBiT cells
T1 sequence (Q9NWZ3 1-460): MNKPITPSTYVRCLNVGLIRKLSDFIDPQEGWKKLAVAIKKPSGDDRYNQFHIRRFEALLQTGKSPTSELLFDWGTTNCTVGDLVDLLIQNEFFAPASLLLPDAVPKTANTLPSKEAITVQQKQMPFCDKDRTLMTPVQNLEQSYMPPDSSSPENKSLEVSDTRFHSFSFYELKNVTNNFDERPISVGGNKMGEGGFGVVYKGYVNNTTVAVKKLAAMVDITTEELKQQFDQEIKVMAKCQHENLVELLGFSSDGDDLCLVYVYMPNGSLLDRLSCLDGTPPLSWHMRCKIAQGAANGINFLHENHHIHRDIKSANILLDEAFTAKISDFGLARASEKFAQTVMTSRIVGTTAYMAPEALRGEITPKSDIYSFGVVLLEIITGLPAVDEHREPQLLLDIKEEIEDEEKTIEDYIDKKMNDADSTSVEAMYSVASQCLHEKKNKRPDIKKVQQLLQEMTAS
The experiment in a line: Target protein degradation in K562 IRAK4-HiBiT cells (Nano-Glo HiBiT). In kind it is cell-based. The conditions noted are these: 16 to 18 hours; for Dmax: read-out: Maximum degradation rate. Here is the method: Experimental objective: The experiment aims to evaluate the degradation effect of the test compounds on the target protein IRAK4 in K562 IRAK4-HiBiT cells.
• Cells: K562 IRAK4-HiBiT cells • Culture medium: RPMI 1640+10% fetal bovine serum+2 mM glutamine+1 mM sodium pyruvate+penicillin/streptomycin. • Positive control: 1000 nM; negative control: 0.1% DMSO.
• (1). The powder of the compound to be tested was dissolved in DMSO to a storage concentration of 10 mM. A total of 9 μL of the 10 mM of the compound to be tested was manually pipetted into the 1st and 13th columns of the LDV plate using a pipettor; • (2). A volume of 6 μL of DMSO was added to columns 2-12 and 14-24 using a Multidrop Combi; • (3). A 3-fold dilution of the test compounds (3 μL+6 μL) was performed using Bravo, for columns 1-11 and 13-23; • (4). According to the plate layout, 25 nL of compound solution (columns 1-24 of the LDV plate) was transferred to the experimental plate using Echo; • (5) 25 nL of the 1 mM positive control solution was transferred to the assay plate as a 100% degradation control (i.e. LC, HPE), and 25 nL of DMSO was transferred to the assay plate as a 0% control (i.e. HC, ZPE).
• (1) The culture medium was discarded, and the cells were washed once with DPBS, digested with trypsin, counted, and prepared into a cell suspension of […]. • (2) Using the MultiDrop Combi at a medium speed, 25 μL/well of the cell suspension was added to the experimental plate containing the test compounds; • (3) The experimental plate containing cells was returned to the incubator and cultured for 16 to 18 hours at 37° C. and 5% CO2.
• (1). Using the MultiDrop Combi at a high speed, 25 μL/well of the assay reagent (NanoGlo lytic solution+substrate+LgBit protein) was added to the assay plate, followed by shaking for 10 minutes; • (2) The plate was centrifuged at 2000 rpm for 1 minute to remove any bubbles; • (3) Readings were obtained by using an Envision, US Luminescence reader.
To calculate the degradation rate (DR) of the test compounds, the following formula is used: IR (%)=(RLU vehicle control−RLU compound)/(RLU vehicle control−RLU positive control)×100%. The solvent control refers to the blank control. The degradation rates of compounds at different concentrations were calculated in Excel, and then XLFit software was used to plot inhibition curves and calculate relevant parameters, including minimum degradation rate, maximum degradation rate, and DC50.

A further test addresses T2, IKZF1 (Homo sapiens, UniProt Q13422+Q96SW2).
T2 construct: host or cells: MM.1S cells
The experiment in a line: In Cell Western of IKZF1 protein expression level in MM.1S cells. Type of test: cell-based. The note with it: IKZF1, MM.1S cells, 24 hours; for Dmax: MM1.S, read-out: Maximum degradation rate Dmax. Here is the method:
Experimental objective: The experiment aims to assess the degradation effect of the test compounds on IKZF1 and 1KZF3 proteins in MM.1S cells by evaluating the impact of the test compounds on the expression levels of IKZF1 and IZKZF3 proteins in MM.1S cells.
• Cell lines: MMN.1 S cell (sourced from ATCC; Cat. No CRL-2974) • Negative control: 0.100 DMSO.
• 1) Log phase MM.1 S cells were plated in a 96-well plate at 1.2×10^5 cells per well and cultured overnight; • 2) The next day, compounds were added with a starting concentration of 300 nM, diluted threefold across three replicate wells for 10 concentration gradients (including DMSO), and the cells were incubated for 24 hours in an incubator; • 3) The cells were centrifuged, and the supernatant was carefully removed. 150 μL of 4% paraformaldehyde fixative was added along the wall of the wells, avoiding contact with the bottom cells, and the cells were incubated at room temperature for 20 minutes; • 4) Lysis buffer was prepared by mixing 0.5 mL of 10% Triton X-100 with 49.5 mL of PBS until homogenous; • 5) 200 μL of lysis buffer was added along the well walls, again avoiding the bottom cells, and incubated on a shaker at room temperature for 5 minutes; • 6) The wells were washed four times; • 7) 150 μL of Licor […] Blocking Buffer was added along the well walls, avoiding the bottom cells, and the cells were incubated on a shaker at room temperature for 1.5 hours; • 8) Ikaros (D6N9Y) Rabbit mAb, Aiolos (D1C1E) Rabbit mAb and GAPDH mouse mAb (proteintech, 60004-1-Ig) were diluted at a 1:100 ratio using antibody dilution buffer; • 9) 50 μL of mixed antibody was added to each well with three replicate wells, and the cells were incubated overnight on a shaker at 4° C.; • 10) PBST (PBS with 0.1% Tween 20) was prepared; • 11) The primary antibodies were removed, and 200 μL of PBST was added along the well walls, avoiding the bottom cells, and the cells were incubated on a shaker at room temperature for 5 minutes; • 12) The wells were washed four times; • 13) Secondary antibody dilution buffer was prepared by adding Tween 20 to Licor […] Blocking Buffer to a final concentration of 0.2%; • 14) Fluorescent secondary antibodies were diluted in the dark at a 1:800 ratio. To 400 μL of secondary antibody dilution solution, 0.5 μL of each IRDye 800CW and IRDye 680CW (corresponding to the primary antibodies) was added. • 15) 50 μL of the diluted fluorescent secondary antibodies was added to each well and the cells were incubated on a shaker at room temperature in the dark for 60 minutes; • 16) The secondary antibodies were removed, and 200 μL of PBST was added along the well walls, avoiding the bottom cells, and the cells were incubated on a shaker at room temperature in the dark for 5 minutes; • 17) The wells were washed four times; immediately after washing, the Odyssey Gel Imaging System was used for detection at dual wavelengths of 700 nm and 800 nm.
Using GraphPad Prism 6 software, inhibition rate data was entered to fit the curve and calculate the DC50 value.

Counter-ions that a name gives are not always drawn.

T2 sequence (Q13422 whole entry): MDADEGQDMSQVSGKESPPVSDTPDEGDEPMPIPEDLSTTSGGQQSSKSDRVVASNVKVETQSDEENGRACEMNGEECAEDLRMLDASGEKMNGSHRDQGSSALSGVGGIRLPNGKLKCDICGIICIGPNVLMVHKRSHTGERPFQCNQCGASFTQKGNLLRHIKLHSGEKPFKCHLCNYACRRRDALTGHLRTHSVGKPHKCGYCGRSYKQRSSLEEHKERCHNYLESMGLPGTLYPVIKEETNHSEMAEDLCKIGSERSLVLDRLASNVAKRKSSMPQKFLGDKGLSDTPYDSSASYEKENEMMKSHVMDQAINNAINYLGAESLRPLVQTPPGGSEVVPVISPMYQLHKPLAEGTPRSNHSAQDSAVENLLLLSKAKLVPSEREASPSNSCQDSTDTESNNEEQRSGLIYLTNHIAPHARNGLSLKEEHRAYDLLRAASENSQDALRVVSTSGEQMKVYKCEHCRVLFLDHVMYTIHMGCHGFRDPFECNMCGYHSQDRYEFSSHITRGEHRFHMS
T2 sequence (Q96SW2 whole entry): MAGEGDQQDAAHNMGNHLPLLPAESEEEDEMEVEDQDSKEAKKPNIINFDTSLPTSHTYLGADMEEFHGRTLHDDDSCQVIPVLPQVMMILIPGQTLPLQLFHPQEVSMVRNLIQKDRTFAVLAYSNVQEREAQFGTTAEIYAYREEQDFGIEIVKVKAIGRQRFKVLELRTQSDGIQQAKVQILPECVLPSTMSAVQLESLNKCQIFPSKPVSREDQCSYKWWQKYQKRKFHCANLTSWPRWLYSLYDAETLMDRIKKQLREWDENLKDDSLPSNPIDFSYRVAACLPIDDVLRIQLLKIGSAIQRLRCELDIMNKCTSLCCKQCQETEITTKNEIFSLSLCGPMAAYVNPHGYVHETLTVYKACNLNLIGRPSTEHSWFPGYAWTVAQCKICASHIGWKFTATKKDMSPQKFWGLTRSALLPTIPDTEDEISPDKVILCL
T2 sequence (Q16531 whole entry partner): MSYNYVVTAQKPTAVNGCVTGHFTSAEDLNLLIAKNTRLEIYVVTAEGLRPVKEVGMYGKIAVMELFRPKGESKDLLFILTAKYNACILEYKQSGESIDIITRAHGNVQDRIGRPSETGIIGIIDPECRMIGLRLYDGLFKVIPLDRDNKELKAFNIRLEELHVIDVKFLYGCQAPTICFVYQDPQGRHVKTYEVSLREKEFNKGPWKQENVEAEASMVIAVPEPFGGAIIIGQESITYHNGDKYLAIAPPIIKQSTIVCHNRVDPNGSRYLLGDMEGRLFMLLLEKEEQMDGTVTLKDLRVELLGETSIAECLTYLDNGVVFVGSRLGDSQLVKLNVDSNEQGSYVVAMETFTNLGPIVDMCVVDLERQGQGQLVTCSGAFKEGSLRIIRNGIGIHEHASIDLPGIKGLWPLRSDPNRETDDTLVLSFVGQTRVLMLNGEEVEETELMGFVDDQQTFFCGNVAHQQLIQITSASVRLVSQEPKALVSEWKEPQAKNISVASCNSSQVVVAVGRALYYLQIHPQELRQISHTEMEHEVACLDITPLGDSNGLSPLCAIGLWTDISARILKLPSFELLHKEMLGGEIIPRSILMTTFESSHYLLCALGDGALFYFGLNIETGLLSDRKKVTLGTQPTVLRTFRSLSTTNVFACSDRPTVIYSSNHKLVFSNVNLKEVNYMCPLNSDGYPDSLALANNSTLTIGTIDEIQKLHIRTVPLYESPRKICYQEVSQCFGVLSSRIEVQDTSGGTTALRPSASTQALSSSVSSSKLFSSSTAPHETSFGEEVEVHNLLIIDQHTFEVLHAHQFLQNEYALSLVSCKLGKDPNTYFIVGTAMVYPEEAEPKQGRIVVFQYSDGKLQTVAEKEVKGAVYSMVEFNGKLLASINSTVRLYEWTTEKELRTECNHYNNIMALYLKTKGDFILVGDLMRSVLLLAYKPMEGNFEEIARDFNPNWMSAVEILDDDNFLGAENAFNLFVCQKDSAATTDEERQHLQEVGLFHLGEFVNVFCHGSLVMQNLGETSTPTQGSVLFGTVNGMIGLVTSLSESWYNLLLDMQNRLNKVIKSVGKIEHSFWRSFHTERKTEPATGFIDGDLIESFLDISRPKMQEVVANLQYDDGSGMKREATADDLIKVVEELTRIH

Regarding `CC(C)(O)c1cc2nc(C3CCC(CN4CCN(CC(=O)Nc5cccc6c5ccc5onc(C7CCC(=O)NC7=O)c56)CC4)CC3)sc2cc1NC(=O)c1cccc(C(F)(F)F)n1` (stereo not drawn) [Formate of WX017], at IRAK4, the DC50 came out at 4 nM and the Dmax was 73.9%. Also, at IKZF1, the DC50 turned out to be 15.7 nM and the Dmax turned out to be 62.9%.

On to `CC(C)(O)c1cc2nc([C@H]3CC[C@H](CN4CCN(CC(=O)Nc5ccc6c(ccc7onc(C8CCC(=O)NC8=O)c76)c5)CC4)CC3)sc2cc1NC(=O)c1cccc(C(F)(F)F)n1` (stereo partly drawn) [Formate of WX020], for which, on IRAK4, the DC50 amounted to 29.9 nM and the Dmax stood at 75.1%. Moreover, at IKZF1, the DC50 stood at 3.77 nM and the Dmax is 85.2%.

For `CC(C)(O)c1cc2nc([C@H]3CC[C@H](CN4CCN(CC(=O)Nc5ccc6c(C7CCC(=O)NC7=O)noc6c5)CC4)CC3)sc2cc1NC(=O)c1cccc(C(F)(F)F)n1` (stereo partly drawn) [Formate of WX026], the DC50 at IRAK4 stood at 0.78 nM; at IKZF1, 5.64 nM. Moreover, the Dmax at IRAK4 was determined as 80.3%; on IKZF1, 84.4%.

For `O=C1CCC(c2coc3cc(NC(=O)CN4CCN(C[C@H]5CC[C@H](N6CC(NC(=O)c7coc(-c8ccnc(NCC9CC9)c8)n7)C(C(F)F)N6)CC5)CC4)ccc23)C(=O)N1` (stereo partly drawn) [Hydrochloride of WX002], on IRAK4, the DC50 was found to be 13.5 nM and the Dmax was determined as 100%.

With `O=C1CCC(c2noc3ccc4c(NC(=O)C(F)(F)C5CCN(CC6CCC(n7cc(NC(=O)c8coc(-c9ccnc(NCC%10CC%10)c9)n8)c(C(F)F)n7)CC6)CC5)cccc4c23)C(=O)N1` (stereo not drawn) [Hydrochloride of WX018], the DC50 on IRAK4 turned out to be 7.91 nM; at IKZF1, 14.5 nM. The Dmax stood at 119% at IRAK4 and 88.8% on IKZF1.

As for `O=C1CCC(c2noc3cc(NC(=O)CN4CCN(C[C@H]5CC[C@H](n6cc(NC(=O)c7coc(-c8ccnc(NCC9CC9)c8)n7)c(C(F)F)n6)CC5)CC4)ccc23)C(=O)N1` (stereo partly drawn) [Hydrochloride of WX025], on IRAK4, the DC50 was determined as 2.53 nM and the Dmax was determined as 105%. Moreover, on IKZF1, the DC50 stood at 14.4 nM and the Dmax was 72.2%.

With `O=C1CCC(c2noc3c(NC(=O)CN4CCN(C[C@H]5CC[C@H](n6cc(NC(=O)c7coc(-c8ccnc(NCC9CC9)c8)n7)c(C(F)F)n6)CC5)CC4)cccc23)C(=O)N1` (stereo partly drawn) [Hydrochloride of WX028], the DC50 on IRAK4 amounted to 2.11 nM; at IKZF1, 26.7 nM. For the same compound, at IKZF1, the Dmax came out at 49.7%.

Turning to `O=C1CCC(c2coc3ccc4c(NC(=O)CN5CCN(C[C@H]6CC[C@H](n7cc(NC(=O)c8coc(-c9ccnc(NCC%10CC%10)c9)n8)c(C(F)F)n7)CC6)CC5)cccc4c23)C(=O)N1` (stereo partly drawn) [Trifluoroacetate of WX011], at IRAK4, the DC50 was 9.6 nM and the Dmax worked out at 105%.
